How the values were obtained:
CXCL8 (IL-8) = test: Increase in expression of CXCL8 (IL-8) in THP-1 cells, human IL-8 ELISA of culture supernatant; format: cell-based; settings: for CXCL8 [IL-8] concentration (pg/μl, average ± deviation): THP-1 cells, 24 hours, supernatant
Description: In RPMI (Hyclone, Thermo Scientific) medium to which 10% Fetal Bovine Serum was added, THP-1 cells, a human macrophage family, were suspended at a concentration of 1×10^5 cells/ml, and culture was conducted in a 5% CO2 humidified incubator at 37° C. The cultured THP-1 cells were inoculated into a 12 well plate by 1×10^6 cells/ml and stabilized for 30 minutes. Then, the culture solution was treated with a diacylglycerol lactone compound of the type shown in Table 2 below for 1 hour and then was treated with Gemcitabine (2 μg/ml) of a cell stimulator, and subsequent further incubation was conducted for 24 hours. Thereafter 1.5 ml of the culture supernatant was collected for each well and centrifuged (at 3000 rpm, 5 minutes) to recover the supernatant. The CXCL8 (IL-8) level in the recovered supernatant was measured according to the manual provided by the human IL-8 ELISA set (BD Biosciences). The day before ELISA was carried out, the IL-8 capture antibody was diluted in phosphate buffered saline, coated on a microwell, and then stored at 4° C. overnight. Each well was washed three times with a washing buffer solution and then blocked with 2% Bovine Serum Albumin (BSA) for 1 hour at room temperature. After washing with washing buffer solution three times, 100 μl of sample was dispensed into each well and left at room temperature for 2 hours. Detection antibody which was washed 3 times with washing buffer and diluted was dispensed into each well and allowed to react at room temperature for 1 hour and left at room temperature for 1 hour. Thereafter, the secondary HRP conjugated antibody was reacted at room temperature for 30 minutes, washed three times with a washing buffer, and treated with 50 μl of stop solution for each well, and then the optical density was measured at 450 nm with an ELISA microplate leader.

RAW264.7 cells = test: Cytotoxicity assessment, cell viability by EZ-Cytox (WST), OD 450 nm; format: cell-based, mouse; settings: 100 μg/ml, 24 hours
Description: In DMEM (Dulbecco Modified Eagle Medium) medium with 10% Fetal Bovine Serum added, RAW264.7 cells, which are cells of the mouse macrophage family, were suspended at a concentration of 1×10^5 cells/ml, and then were inoculated into 96 well plates by 100 μl, and culture was conducted for 15 hours. […] According to the EZ-CYTOX (Daeillab_EZ-1000) manual for measuring the amount of living cells using WST, 10 μl of EZ-Cytox was added to each well and reacted for up to 2 hours from 30 minutes, and then an optical density (OD) at 450 nm was measured.

[1] = compound 100 μg/ml for 1 hour, then Gemcitabine 2 μg/ml

| SMILES | CXCL8 [IL-8] concentration (pg/μl, average ± deviation) (CXCL8 (IL-8); [1]) [pg/µL] | RAW264.7 cell viability (RAW264.7 cells) [%] | secretion of CXCL8 (IL-8) chemokine, increase compared to the negative control group (CXCL8 (IL-8); THP-1 cells treated with Gemcitabine) | CXCL8 [IL-8] concentration (pg/μl, average ± deviation) (CXCL8 (IL-8); Gemcitabine 2 μg/ml alone) [pg/µL] |
| --- | --- | --- | --- | --- |
| CCCCCC=CCC=CCCCCCCCC(=O)OCC1(COC(=O)C(C)CC)CCC(=O)O1 (mixture of isomers) [EC-A126] | 352.96 ± 0.45 | – | – | – |
| CCCCC/C=C\C/C=C\CCCCCCCC(=O)OCC1(COC(=O)CC)CCC(=O)O1 (racemic) [EC-A115] | 1202.80 ± 38.09 | – | – | – |
| CCCCC/C=C\C/C=C\CCCCCCCC(=O)OCC1(COC(=O)CCC)CCC(=O)O1 (racemic) [EC-A116] | 865.54 ± 12.31 | 141.09 ± 5.01 | – | – |
| CCCCC/C=C\C/C=C\CCCCCCCC(=O)OCC1(COC(=O)CCCC)CCC(=O)O1 (racemic) [EC-A117] | 568.12 ± 8.21 | – | – | – |
| CCCCC/C=C\C/C=C\CCCCCCCC(=O)OCC1(COC(=O)CCCCC)CCC(=O)O1 (racemic) [EC-A118] | 622.16 ± 6.61 | – | – | – |
| CCCCC/C=C\C/C=C\CCCCCCCC(=O)OCC1(COC(=O)CCCCCC)CCC(=O)O1 (racemic) [EC-A119] | 343.61 ± 7.75 | – | – | – |
| CCCCC/C=C\C/C=C\CCCCCCCC(=O)OCC1(COC(=O)CCCCCCCC)CCC(=O)O1 (racemic) [EC-A120] | 237.80 ± 3.64 | – | – | – |
| CCCCC/C=C\C/C=C\CCCCCCCC(=O)OCC1(COC(=O)CCCCCCCCCCC)CCC(=O)O1 (racemic) [EC-A121] | 215.38 ± 4.33 | 114.25 ± 33.11 | – | – |
| CCCCC/C=C\C/C=C\CCCCCCCC(=O)OCC1(COC(=O)CCCCCCCCCCCCC)CCC(=O)O1 (racemic) [EC-A122] | 190.06 ± 4.56 | 105.48 ± 3.92 | – | – |
| CCCCC/C=C\C/C=C\CCCCCCCC(=O)OCC1(COC(=O)C(C)C)CCC(=O)O1 (racemic) [EC-A124] | 663.45 ± 2.96 | – | – | – |
| CCCCC/C=C\C/C=C\CCCCCCCC(=O)OCC1(COC(=O)C(C)(C)C)CCC(=O)O1 (racemic) [EC-A125] | 252 ± 11.86 | – | – | – |
| CCCCC/C=C\C/C=C\CCCCCCCC(=O)OCC1(COC(=O)C2CC2)CCC(=O)O1 (racemic) [EC-A127] | 532.32 ± 1.82 | – | – | – |
| CCCCC/C=C\C/C=C\CCCCCCCC(=O)OCC1(COC(=O)C2CCCCC2)CCC(=O)O1 (racemic) [EC-A128] | 351.03 ± 7.75 | – | – | – |
| CCCCCCCCCCCCCCCC(=O)OCC1(COC(=O)C(C)C)CCC(=O)O1 (racemic) [EC-A131] | 1256.19 ± 15.96 | 100.25 ± 14.78 | – | – |
| CCCCCCCCCCCCCCCC(=O)OCC1(COC(=O)C(C)(C)C)CCC(=O)O1 (stereo not shown) [EC-A132] | 921.35 ± 52.46 | 96.58 ± 5.01 | – | – |
| CCCCCCCCCCCCCCCC(=O)OCC1(COC(=O)C(C)CC)CCC(=O)O1 (stereo not shown) [EC-A133] | 1176.67 ± 29.42 | 114.45 ± 3.46 | – | – |
| CCCCCCCCCCCCCCCC(=O)OCC1(COC(=O)C2CC2)CCC(=O)O1 (stereo not shown) [EC-A134] | 1266.03 ± 2.05 | 110.06 ± 4.19 | – | – |
| CCCCCCCCCCCCCCCC(=O)OCC1(COC(=O)C2CCCCC2)CCC(=O)O1 (stereo not shown) [EC-A135] | 310.87 ± 14.37 | – | – | – |
| CCCCCCCCCCCCCCCC(=O)OCC1(COC(=O)CCCCCCCCCCC)CCC(=O)O1 (stereo not shown) [EC-A136] | 138.93 ± 2.96 | 95.54 ± 3.01 | – | – |
| CCCCCCCCCCCCCCCC(=O)OCC1(COC(=O)CCCCCCCCCCCCC)CCC(=O)O1 (stereo not shown) [EC-A137] | 133.12 ± 8.43 | 93.87 ± 8.85 | – | – |
| Nc1ccn([C@@H]2O[C@H](CO)[C@@H](O)C2(F)F)c(=O)n1 [Gemcitabine, reference compound] | – | – | about five | 101.83 ± 1.59 |

Source: patent US20210002242A1, “DIACYLGLYCEROL LACTONE COMPOUND, PREPARATION METHOD THEREFOR, AND IMMUNOSTIMULATOR CONTAINING SAME AS ACTIVE INGREDIENT” (priority 2018, published 2021)
